Where “and” joins values, the source holds several entries; their conditions need not be identical. Equal entries are not always repeated.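 The compound was tested at five concentrations on cells cultured in 96-well plates, with a 48-hour exposure period. GI50: concentration for 50% inhibition of growth. At the TGI there is no net growth.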
Assays:
Experiment in all cases: NCI tumour cell line growth inhibition, 48 h
NCI-H23 lung = system: NCI-H23 lung
OVCAR-5 ovarian = system: OVCAR-5 ovarian
HCT-116 colon = system: HCT-116 colon
A549 NSCLC = system: A549 NSCLC
SNB-19 CNS = system: SNB-19 CNS
IGROV1 ovarian = system: IGROV1 ovarian
ACHN renal = system: ACHN renal
EKVX NSCLC = system: EKVX NSCLC
DLD-1 colon = system: DLD-1 colon
KM20L2 colon = system: KM20L2 colon

Structure (SMILES)	GI50 (NCI-H23 lung)	TGI (NCI-H23 lung)	GI50 (OVCAR-5 ovarian)	TGI (OVCAR-5 ovarian)	GI50 (HCT-116 colon)	TGI (HCT-116 colon)	GI50 (A549 NSCLC)	TGI (A549 NSCLC)	GI50 (SNB-19 CNS)	TGI (SNB-19 CNS)	GI50 (IGROV1 ovarian)	TGI (IGROV1 ovarian)	GI50 (ACHN renal) [µM]	TGI (ACHN renal)	GI50 (EKVX NSCLC) [µM]	TGI (EKVX NSCLC)	TGI (DLD-1 colon) [µM]	TGI (KM20L2 colon) [µM]	GI50 (DLD-1 colon)	GI50 (KM20L2 colon)
Cc1cc(S(N)(=O)=O)c(S/C(=N\Nc2ccc([N+](=O)[O-])cc2)c2ccc3ccccc3c2)cc1Cl	16.4 µM	30.2 µM	14.8 µM	27.9 µM	4670 nM	> 100 µM	54.1 µM	> 100 µM	67.5 µM	> 100 µM	54300 nM	> 100 µM	17	30.7 µM	17.9	64.3 µM				
CCN1C(=O)N(CC)C2C1NN=c1s/c(=C\c3cccc([N+](=O)[O-])c3)c(=O)n12 (configuration not stated)	0.413 µM	> 100 µM	0.324 µM	> 100 µM	42.2 nM	> 100 µM	0.181 µM	> 100 µM	0.128 µM	> 100 µM	162 nM	> 100 µM	0.0662	> 100 µM	0.382	> 100 µM				
Cn1c(C(C)(C)OC(=O)Oc2ccccc2)cnc1[N+](=O)[O-]		> 100 µM		> 100 µM		> 100 µM		> 100 µM		> 100 µM		> 100 µM		> 100 µM		> 100 µM				
CSc1nc(N)c2c(n1)NC(c1ccccc1)C1CCc3ccccc3C1=N2 (configuration not stated)	6.16 µM	> 100 µM	> 100 µM	> 100 µM	7390 nM	> 100 µM	> 100 µM	> 100 µM	> 100 µM	> 100 µM	1610 nM	74 µM	84.4	> 100 µM	7	> 100 µM				
Nc1ncnc2nn(C3OC(CO)C(O)C3O)nc12 (configuration not stated)		67.9 µM		> 95.3 µM		39.1 µM		> 64 µM		99.1 µM		39.1 µM		49.3 µM		> 100 µM				
COc1ccc(Oc2cc(NCCC(F)(F)F)c3ncc(-c4ccc(C(=O)NC5CC5)c(C)c4)n3n2)c(F)c1F	4.16 µM	> 100 µM	24.9 µM	> 100 µM	< 10 nM	> 54.5 µM	0.902 µM	> 59.2 µM	5.73 µM	> 72.4 µM	484 nM	> 68.3 µM	0.304	30.2 µM	2.53	> 100 µM				
Cc1cn2c(/C=N/N=C(N)N)c(-c3ccsc3)nc2s1	15.8 µM	30.5 µM	15.1 µM	28.7 µM	3140 nM	12.6 µM	17.1 µM	34.7 µM	7.31 µM	23.7 µM	14900 nM	46.3 µM	3.08	13.6 µM	13.8	27.4 µM				
COc1ccc2nccc(/C=C/c3ccnc4ccc(OC)cc34)c2c1	> 100 µM	> 100 µM	> 82.2 µM	> 100 µM	38700 nM	> 100 µM	> 100 µM	> 100 µM	> 100 µM	> 100 µM	28400 nM	75.7 µM	> 71	> 100 µM	> 61.2	> 100 µM				
N=C(N)SCc1ccc([N+](=O)[O-])cc1[N+](=O)[O-]	10.6 µM	36.2 µM	23.1 µM	40 µM	3530 nM	13.6 µM	21.6 µM	66.4 µM	26 µM	79 µM	4330 nM	15.3 µM	8.04	21.1 µM	11	25.8 µM				
CNCCCn1c2c(c3ccc(F)cc3c1=O)C(=O)c1cc(OC)cnc1-2	0.312 µM	1.97 µM	0.352 µM	1.87 µM	143 nM	0.617 µM	0.105 µM	0.288 µM	0.216 µM	1.78 µM	320 nM	4.11 µM	0.117	0.362 µM	0.301	1.96 µM				
CC/C=C\C[C@H](O)C/C=C1/C(=O)C=C[C@@H]1C/C=C\CCCC(=O)NC	1.82 µM	4.22 µM	2 µM	4.27 µM	612 nM	2.04 µM	2.55 µM	6.81 µM	6.91 µM	20.9 µM	2930 nM	10.7 µM	1.56	3.21 µM	3.71	15.2 µM				
Cc1ccc(C)c2c(N=Nc3ccccc3[N+](=O)[O-])c(O)[nH]c12		> 100 µM		> 100 µM		> 100 µM		> 100 µM		> 100 µM		> 100 µM		> 100 µM		> 100 µM				
Clc1ccc(N2CCC(N3CCCC3)CC2)cc1-c1nc2ccccc2[nH]1	25.7 µM	> 71.3 µM	26.5 µM	> 69.4 µM	13100 nM	27.5 µM	27.2 µM	> 84.4 µM	33.7 µM	> 100 µM	33800 nM	> 100 µM	26.7	67.4 µM	37.9	> 100 µM				
Cc1cc(NS(=O)(=O)c2ccc(Nc3c4ccccc4nc4c(C(=O)Nc5ccc(S(=O)(=O)N=C(N)N)cc5)ccc(Cl)c34)cc2)no1		92.6 µM		> 100 µM		> 100 µM		> 100 µM		> 100 µM				> 100 µM		> 100 µM	> 100	> 100		
CCN(CC)CCCNc1[nH]ncc2c(C)c3nc4ccccc4c3cc12	0.583 µM	1.99 µM and 3.72 µM	0.774 µM	6.81 µM and 16.6 µM	412 nM and 421 nM	2.32 µM and 3.31 µM	0.398 µM	2.94 µM and 14.2 µM	0.857 µM	5.96 µM and 4.79 µM	1080 nM	8.16 µM and 6.88 µM		11.6 µM and 9.15 µM	0.887	3.44 µM and 8.38 µM				
O=C1N[C@H]2[C@H](O)[C@H](O)[C@@H](O)[C@H](O)[C@@H]2c2cc3c(c(O)c21)OCO3	0.241 µM and 0.375 µM	0.712 µM and 2.18 µM and 0.677 µM	0.657 µM and 1.16 µM	9.37 µM and 1.22 µM	129 nM and 253 nM	0.682 µM and 1.42 µM and 0.144 µM	0.407 µM and 3.51 µM		0.172 µM and 0.125 µM	0.939 µM and 0.197 µM	349 nM and 757 nM						0.422	3.06	282 nM and 1940 nM	350 nM and 1760 nM

Structure (SMILES)	GI50 (NCI-H23 lung)	TGI (NCI-H23 lung)	GI50 (OVCAR-5 ovarian)	TGI (OVCAR-5 ovarian)	GI50 (HCT-116 colon)	TGI (HCT-116 colon)	GI50 (A549 NSCLC)	TGI (A549 NSCLC)	GI50 (SNB-19 CNS)	TGI (SNB-19 CNS)	GI50 (IGROV1 ovarian)	TGI (IGROV1 ovarian)	GI50 (ACHN renal) [µM]	TGI (ACHN renal)	GI50 (EKVX NSCLC) [µM]	TGI (EKVX NSCLC)	TGI (DLD-1 colon) [µM]	TGI (KM20L2 colon) [µM]	GI50 (DLD-1 colon)	GI50 (KM20L2 colon)
Brc1ccc(C2SCc3nc4ccccc4n32)cc1 (configuration not stated)		15.3 µM		25.2 µM		19.6 µM		> 100 µM		9.02 µM		27.3 µM		40.2 µM		33.8 µM	22.3			
Oc1ccccc1C=Nc1ccccc1N=Cc1ccccc1O.[Cu+2]	3.16 µM	14 µM	14.8 µM	36 µM	4450 nM	16.9 µM	5.88 µM	18.2 µM	13 µM	26.3 µM	3270 nM	20.1 µM	5.64	22.2 µM	8.62	23.6 µM				
CCOC(=O)c1nc2cc(C(F)(F)F)ccc2[n+]([O-])c1C	> 100 µM	> 100 µM	> 100 µM	> 100 µM	> 100000 nM	> 100 µM	> 100 µM	> 100 µM	> 100 µM	> 100 µM	> 100000 nM	> 100 µM	> 100	> 100 µM	> 100	> 100 µM				
CN1CCN(c2ccc(C(=O)Nc3cccc(C#Cc4cccc5[nH]nc(N)c45)c3)cc2C(F)(F)F)CC1	1.79 µM	6.12 µM	0.959 µM	3.27 µM	525 nM	1.04 µM	0.767 µM	2.02 µM	1.68 µM	4.92 µM	716 nM	1.92 µM	0.801	2.4 µM	1.6	5.63 µM				
COC(=O)[C@@H](OC)[C@@H]1Cc2cc3cc(OC4CC(OC5CC(O)C(O)C(C)O5)C(O)C(C)O4)c(C)c(O)c3c(O)c2C(=O)[C@H]1OC1CC(OC2CC(OC3CC(C)(O)C(O)C(C)O3)C(O)C(C)O2)C(O)C(C)O1 (some centres not stated)	0.0345 µM		0.0524 µM	> 16.5 µM	24.6 nM	> 16.5 µM	0.0484 µM	> 16.5 µM	0.0449 µM	> 8.89 µM	29.9 nM	> 16.5 µM	0.0313	> 16.5 µM	0.0457	1.22 µM				
Cn1c2ccccc2c2nnc(NNCc3ccccn3)nc21	0.421 µM	6.15 µM	1.01 µM	15.3 µM	409 nM	12.2 µM	0.414 µM	16.4 µM	0.597 µM	17.4 µM	364 nM	4.79 µM	0.305	2.37 µM	0.406	15.2 µM				
COC(=O)/C(=C\c1c(-c2ccccc2)[nH]c2ccccc12)S(C)(=O)=O	7.95 µM	41.8 µM	19.6 µM	49.8 µM	4200 nM	21.4 µM	5.26 µM	98.4 µM	8.68 µM	> 100 µM	1670 nM	9.17 µM	9.18	23.8 µM	8.92	> 100 µM				
Cc1cc2c(cc1C)[n+](Cc1ccc3ccccc3n1)cn2Cc1ccc2ccccc2n1	0.736 µM	3.53 µM	1.3 µM	6.89 µM	407 nM	1.74 µM	2.83 µM	13 µM	0.91 µM	2.36 µM	570 nM	2.21 µM	3.06	10.6 µM	2.29	11.1 µM				
CN(C)c1ccc(/C=N/NC(=O)c2cccc3ccccc23)c(Cl)c1	7.51 µM	> 100 µM	24.1 µM	> 100 µM	559 nM	> 100 µM	0.926 µM	> 100 µM	15.5 µM	> 100 µM	3440 nM	> 100 µM	5.65	> 100 µM	3.51	> 100 µM				
CC12CCC(O)CC1=CCC1C2CCC2(C)C(c3cccnc3)=CCC12 (configuration not stated)	> 100 µM	> 100 µM	> 100 µM	> 100 µM	> 100000 nM	> 100 µM	> 100 µM	> 100 µM	> 100 µM	> 100 µM	> 100000 nM	> 100 µM	> 100	> 100 µM	> 100	> 100 µM				
C#C/C=C/CC1OC(C(Br)CC)CC(Br)C2CC1O2 (configuration not stated)		> 100 µM		> 100 µM		> 100 µM		> 100 µM		> 100 µM		14.6 µM		> 100 µM		> 100 µM				
O=C(Sc1sc(=S)sc1SC(=O)c1ccccc1)c1ccccc1		> 100 µM		> 100 µM		> 100 µM		70.6 µM		> 100 µM		> 100 µM		> 100 µM		> 100 µM		> 100		
Cc1ccc(C(=O)N=Nc2c(O)[nH]c3ccc(Cl)cc23)cc1	16.9 µM	> 50 µM	44.6 µM	> 50 µM	10400 nM	> 50 µM	22.8 µM	> 50 µM	45.6 µM	> 50 µM	36600 nM	> 50 µM	> 50	> 50 µM	> 50	> 50 µM				
COc1ccc(C#CC2=C(c3cc(OC)c(OC)c(OC)c3)C(=O)OC2)cc1	5.77 µM	17.3 µM	> 50 µM	> 50 µM	1800 nM	> 50 µM	14.3 µM	38.8 µM	5.98 µM	> 50 µM	13900 nM	> 50 µM	5.89	25.3 µM	13.7	41.8 µM				
O=S(=O)(NCCO)c1cc[c]([Sb](=[O])([OH])[OH])cc1	> 100 µM	> 100 µM	> 100 µM	> 100 µM	> 100000 nM	> 100 µM	> 100 µM	> 100 µM	> 100 µM	> 100 µM	> 100000 nM	> 100 µM	> 100	> 100 µM	> 100	> 100 µM				
Cc1cc2c(=O)[nH]c(N)nc2nc1C		> 100 µM		> 100 µM		> 100 µM		> 100 µM		> 100 µM		> 100 µM		> 100 µM		> 100 µM				

— PubChem BioAssay (NCI)
